According to publication PMC6628648, “Enabling microbial syringol conversion through structure-guided protein engineering” (Proceedings of the National Academy of Sciences of the …, 2019):

What was measured:
Format in all cases: biochemical, Amycolatopsis sp. ATCC 39116
[1] = target: T1, WT GcoA (Amycolatopsis sp., UniProt P0DPQ7); test: NADH consumption assay (steady-state kinetics, specific activity) with GcoB; conditions: for Specific activity: WT, NADH consumption, saturating (200 µM) substrate, pH 7.5, 25°C
T1 construct: GST (N, cleaved yes); made in house; host or cells: E. coli Rosetta 2 (DE3)
T1 sequence (P0DPQ7 1-407): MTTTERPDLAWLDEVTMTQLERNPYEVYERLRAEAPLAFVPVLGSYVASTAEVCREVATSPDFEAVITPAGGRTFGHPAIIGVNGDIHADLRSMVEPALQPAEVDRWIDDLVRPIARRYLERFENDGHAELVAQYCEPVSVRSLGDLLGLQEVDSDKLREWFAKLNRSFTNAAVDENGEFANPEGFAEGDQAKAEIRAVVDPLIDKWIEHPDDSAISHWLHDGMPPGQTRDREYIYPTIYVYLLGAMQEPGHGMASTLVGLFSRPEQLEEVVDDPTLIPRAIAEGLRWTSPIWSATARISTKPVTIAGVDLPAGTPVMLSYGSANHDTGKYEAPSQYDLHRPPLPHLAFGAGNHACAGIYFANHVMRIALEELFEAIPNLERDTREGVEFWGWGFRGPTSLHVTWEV

[2] = target: T2, GcoA variant F169V (Amycolatopsis sp., UniProt P0DPQ7, F169V); test: NADH consumption assay (specific activity) with GcoB; conditions: saturating (200 µM) substrate, pH 7.5, 25°C
T2 construct: GST (N, cleaved yes); made in house; host or cells: E. coli Rosetta 2 (DE3)

[3] = target: GcoA-F169A (Amycolatopsis sp., UniProt P0DPQ7, F169A); test: Discontinuous HPLC specific activity (aromatic substrate disappearance); set-up: GST (N, cleaved yes); made in house; host or cells: E. coli Rosetta 2 (DE3); conditions: 300 μM substrate, 300 μM NADH, 0.2 μM F169A/GcoB
Procedure: HPLC was used to verify the O-demethylated product of GcoA-F169A GcoA/GcoB with guaiacol, syringol, or 3MC. In addition, discontinuous HPLC was used to determine the specific activity of aromatic product disappearance. Details are provided in SI Appendix. […]
vi = Vmax[S]/(KM + [S]) (4)
Determination of substrate dissociation constants (KD) with F169A. 0-60 µM of guaiacol, syringol, or 3MC in 0.5 or 1 µM aliquots, were titrated into a cuvette containing 3 µM F169A GcoA in 25 mM HEPES, 50 mM NaCl, pH 7.5. The spectrum after each substrate addition was recorded, beginning with no substrate bound. The solution reached equilibrium before the next addition. A difference spectrum was made to illustrate the shift from a low-spin aquo-heme complex to the high-spin substrate-bound complex (spectral […]
shift from 417 nm to 388 nm). […] The absorbance […]
at 388 nm (Abs388-417 nm) was plotted as a function of [substrate], yielding a quadratic curve that was fit to equation (5) to determine […]
Formaldehyde determination. A colorimetric assay using tryptophan can be used to quantify the amount of formaldehyde produced in F169 GcoA/B reactions with guaiacol, syringol, or 3MC. […] 200 μM NADH was added and the background rate recorded. 100 (guaiacol, syringol, or 3MC) or 200 (syringol) μM of substrate was then added and the reaction monitored until there was no more change, due to either substrate, NADH or O2 depletion, whichever occurred first. […] After cooling, the absorbance was read at 575 nm and the [formaldehyde] calculated by using ε575 nm = 4.2 mM-1 cm-1, obtained with formaldehyde as a standard (1). […]
HPLC for product identification and specific activity measurement. […] Integrated intensities vs [standards] were plotted and the resulting standard curves used to quantify the reactants and products.
For specific activity determination, 300 μM guaiacol, syringol, or 3MC were added from 0.1 M DMSO stocks to air saturated buffer (25 mM HEPES, 50 mM NaCl, pH 7.5), with a final volume of 1 mL. The [analyte] was measured via the above HPLC method. […]

[4] = WT GcoA, apparent, 0.2 µM GcoAB, 300 µM NADH, 210 µM O2, 0–300 µM substrate, pH 7.5, 25 °C

T2 sequence (P0DPQ7 whole entry F169V): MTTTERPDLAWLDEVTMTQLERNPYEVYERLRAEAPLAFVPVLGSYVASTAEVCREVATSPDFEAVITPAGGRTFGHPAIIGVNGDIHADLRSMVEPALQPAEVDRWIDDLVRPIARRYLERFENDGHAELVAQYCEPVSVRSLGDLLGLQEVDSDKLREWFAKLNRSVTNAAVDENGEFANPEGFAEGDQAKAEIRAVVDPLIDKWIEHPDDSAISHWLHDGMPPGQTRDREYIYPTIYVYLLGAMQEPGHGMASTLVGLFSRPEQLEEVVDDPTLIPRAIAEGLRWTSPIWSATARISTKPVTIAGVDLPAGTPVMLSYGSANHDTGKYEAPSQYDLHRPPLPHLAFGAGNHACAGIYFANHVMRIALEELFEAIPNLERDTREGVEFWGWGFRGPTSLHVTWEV
GcoA-F169A, sequence (P0DPQ7 whole entry F169A): as the sequence (P0DPQ7 whole entry F169V) above, with V169A counted along it

Compound	Specific activity [1] [μmol sec-1 μmol-1 GcoA]	Specific activity [2] [μmol sec-1 μmol-1 GcoA]	aromatic substrate disappearance (specific activity) [3] [μM s-1 μmol F169A-1]	Km [1, 4] [µM]	kcat [1, 4] [s⁻¹]	demethylation by WT GcoA ([1]; WT GcoA 0.2 μM, 300 μM NADH, 210 μM O2, pH 7.5, 25 °C)
COc1cccc(O)c1O [3MC, 3-methoxycatechol]	3.2 ± 0.2	5.7 ± 0.3	2.6 ± 0.3	–	–	–
COc1ccccc1O [guaiacol, 2-methoxyphenol]	5.0 ± 0.1	5.3 ± 0.2	5.6 ± 0.3	60 ± 10	6.8 ± 0.02	–
COc1cccc(OC)c1O [syringol, 2,6-dimethoxyphenol]	–	4.1 ± 0.8	4.1 ± 0.3	–	–	unable to demethylate syringol
